This passage reports TGI and GI50 results from PubChem BioAssay (NCI).

Among the test systems are M14 melanoma; UACC-62 melanoma; NCI-H23 lung; DU-145 prostate; SF-295 CNS; RXF 393 renal; PC-3 prostate; OVCAR-4 ovarian; 786-0 renal; ACHN renal; A498 renal; HOP-62 NSCLC; LOX IMVI melanoma; CCRF-CEM leukemia; SR leukemia.
What all share (assay): NCI anticancer screen, dose series, 48 h

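Each compound was tested at five concentrations against cells in 96-well plates for 48 hours. GI50 marks 50% less growth. The concentration for full growth arrest is given as TGI.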 Where only a bound is given, the exact number is not on record here.

In the case of `NS(=O)(=O)c1ccc(N=Nc2ccc(O)c(C(=O)O)c2)cc1`, the TGI in the assay on M14 melanoma, in the assay with UACC-62 melanoma, with NCI-H23 lung, in the assay on DU-145 prostate, in the assay on SF-295 CNS and in the assay with RXF 393 renal was greater than 100 µM in each case. Moreover, the TGI in the assay with PC-3 prostate, in the assay on OVCAR-4 ovarian, with 786-0 renal, in the assay with ACHN renal, in the assay on A498 renal and with HOP-62 NSCLC was greater than 100 µM throughout.

Take `FC(F)(F)c1ccc2nc(Sc3ccc4ccccc4c3)cnc2c1`: the TGI with M14 melanoma, with UACC-62 melanoma, in the assay on NCI-H23 lung, in the assay with DU-145 prostate, with LOX IMVI melanoma and with SF-295 CNS was greater than 100 µM throughout. The TGI was 92.6 µM in the assay on RXF 393 renal; greater than 100 µM with CCRF-CEM leukemia; greater than 100 µM with OVCAR-4 ovarian; greater than 100 µM with 786-0 renal; greater than 100 µM in the assay with ACHN renal; greater than 100 µM with A498 renal. Also, the TGI in the assay with HOP-62 NSCLC is greater than 100 µM.

As to `CCOC(=O)C(C(=O)COC(C)(C)C)[C@@H]1C=C[C@H](OC(C)=O)C1` (some centres undefined), the TGI in the assay with M14 melanoma, in the assay with UACC-62 melanoma, with NCI-H23 lung, in the assay on SF-295 CNS, in the assay on CCRF-CEM leukemia and in the assay with PC-3 prostate was greater than 100 µM throughout. Besides, the TGI with OVCAR-4 ovarian, in the assay on 786-0 renal, in the assay on ACHN renal, in the assay with A498 renal and with HOP-62 NSCLC was greater than 100 µM throughout.

On to `COc1ccc2c([nH]c3c(O)c(-c4c(C)cc5c([nH]c6c(CC=C(C)C)c(OC)ccc65)c4O)c(C)cc32)c1CC=C(C)C`, for which the TGI in the assay on M14 melanoma, in the assay on UACC-62 melanoma, in the assay on NCI-H23 lung, with LOX IMVI melanoma, in the assay on SF-295 CNS and with RXF 393 renal was greater than 100 µM throughout. In addition, the TGI in the assay on SR leukemia, with CCRF-CEM leukemia, in the assay on OVCAR-4 ovarian, in the assay with 786-0 renal, in the assay on ACHN renal and in the assay with A498 renal was greater than 100 µM throughout. The same compound registered a TGI with HOP-62 NSCLC greater than 100 µM.

Consider `O=c1c2ccccc2nc(-c2ccccc2)n1NC(=S)Nc1cccc(Cl)c1`, for which the TGI with M14 melanoma was greater than 100 µM; in the assay on UACC-62 melanoma, greater than 100 µM; with NCI-H23 lung it was greater than 100 µM; in the assay with LOX IMVI melanoma, greater than 100 µM; in the assay with SF-295 CNS, greater than 100 µM; in the assay with RXF 393 renal, 67.1 µM. Moreover, the TGI with SR leukemia, in the assay with CCRF-CEM leukemia, in the assay on OVCAR-4 ovarian, with 786-0 renal, with ACHN renal and in the assay with A498 renal was greater than 100 µM in each case. In the assay on HOP-62 NSCLC, this compound came in with a TGI greater than 100 µM.

For the compound `Cc1ccc(S(=O)(=O)Nn2c(O)c(C#N)c(-c3ccc([N+](=O)[O-])cc3)c(C#N)c2=O)cc1`, the TGI with M14 melanoma, in the assay on UACC-62 melanoma, in the assay on LOX IMVI melanoma, in the assay with SF-295 CNS, with RXF 393 renal and with CCRF-CEM leukemia was greater than 100 µM throughout. For the same compound, the TGI in the assay with PC-3 prostate, with OVCAR-4 ovarian, in the assay with 786-0 renal, with ACHN renal, in the assay with A498 renal and in the assay with HOP-62 NSCLC was greater than 100 µM throughout.

In the case of `C(=C/c1nc2ccccc2o1)/c1ccc2c(c1)OCO2`, the TGI in the assay on UACC-62 melanoma is greater than 45.5 µM; in the assay on NCI-H23 lung, greater than 100 µM; with LOX IMVI melanoma, greater than 47.8 µM; in the assay with SF-295 CNS, 23.1 µM; with RXF 393 renal, 41.9 µM; in the assay on CCRF-CEM leukemia, greater than 100 µM. Further, the TGI in the assay with OVCAR-4 ovarian is 44.6 µM; in the assay on A498 renal, 56.8 µM; with HOP-62 NSCLC it was 45.7 µM.

With `CC(=O)Nc1ccc(-c2nnc(SCC(=O)Nc3ccc(Cl)cc3)o2)cc1`, the TGI with M14 melanoma came out at 34.1 µM; in the assay on UACC-62 melanoma, 20.2 µM; in the assay with NCI-H23 lung it was 18.2 µM; with LOX IMVI melanoma, 22.4 µM; in the assay on SF-295 CNS it was 25.2 µM; in the assay on RXF 393 renal, 22.6 µM. For the same compound, the TGI with CCRF-CEM leukemia is 82.9 µM; in the assay with OVCAR-4 ovarian it was 55.9 µM; with 786-0 renal it was 19.6 µM; in the assay with ACHN renal it was 28.5 µM; with A498 renal it was 31.7 µM; in the assay with HOP-62 NSCLC, 39.7 µM.

Regarding `CCOC(C)OC1CC(n2cc(C)c(=O)[nH]c2=O)OC1CO` (centres undefined), the TGI with M14 melanoma, with NCI-H23 lung, with LOX IMVI melanoma, in the assay with SF-295 CNS, with RXF 393 renal and in the assay with SR leukemia was greater than 100 µM each time. The TGI with CCRF-CEM leukemia, in the assay on OVCAR-4 ovarian, with ACHN renal, with A498 renal and in the assay with HOP-62 NSCLC was greater than 100 µM in each case.

Take `O=C(CCC1CCCCN1)Nc1ccc2c(c1)C(=O)c1ccc(NC(=O)CCN3CCCCC3)cc1C2=O` (centres undefined): the TGI is 2.8 µM with M14 melanoma; 5.27 µM with NCI-H23 lung; 2.66 µM in the assay on LOX IMVI melanoma; 20.8 µM in the assay with SF-295 CNS; 2.07 µM in the assay with RXF 393 renal; greater than 100 µM in the assay with SR leukemia. Besides, the TGI in the assay on CCRF-CEM leukemia was determined as 4.86 µM; in the assay on OVCAR-4 ovarian, 5.38 µM; with A498 renal, 16.2 µM; in the assay with HOP-62 NSCLC, 27.9 µM. In the assay on CCRF-CEM leukemia, the GI50 is 1.12 µM.

`CCCCCCCCCCCCOP(=O)(O)OP(=O)(O)OCC1OC(n2cc(C)c(=O)[nH]c2=O)CC1O` (centres undefined): the TGI in the assay on M14 melanoma, in the assay with NCI-H23 lung, with LOX IMVI melanoma, with SF-295 CNS, in the assay with RXF 393 renal and with CCRF-CEM leukemia was greater than 100 µM each time. Also, the TGI with PC-3 prostate, in the assay on OVCAR-4 ovarian, in the assay with 786-0 renal, in the assay on ACHN renal, in the assay with A498 renal and with HOP-62 NSCLC was greater than 100 µM throughout.
